Assay [1] has as its target T1, human B1R receptor (CHO K1 cells stably transfected with the human B1R gene) (Homo sapiens, UniProt P46663).
T1 construct: expressed in transfected cells; host or cells: CHO K1 cells (Chinese hamster ovary), stably transfected
T1 sequence (P46663 1-353): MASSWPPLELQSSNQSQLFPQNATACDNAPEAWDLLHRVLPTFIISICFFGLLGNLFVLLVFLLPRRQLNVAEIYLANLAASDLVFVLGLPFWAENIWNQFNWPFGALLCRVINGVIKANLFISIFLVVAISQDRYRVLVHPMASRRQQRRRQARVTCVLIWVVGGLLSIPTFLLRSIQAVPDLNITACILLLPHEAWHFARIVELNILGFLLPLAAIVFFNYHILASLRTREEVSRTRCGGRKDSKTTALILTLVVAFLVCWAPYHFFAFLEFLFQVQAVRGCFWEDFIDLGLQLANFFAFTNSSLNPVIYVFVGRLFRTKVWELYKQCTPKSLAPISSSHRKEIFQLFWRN
The assay is described as follows: Functional study on the bradykinin receptor 1 (B1R), Ca2+ fluorescence (Fluo-4) FLIPR/Novostar assay, hB1R cells. Format: cell-based. The method in brief: (§1)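 Ca2+ influx (Fluo-4, peak fluorescence, λex 488/λem 540 nm) was measured in CHO K1 lines expressing rat or human B1R. After a 10 μM test-compound pre-addition scoring % activation, cells received EC80 agonist: Des-Arg9-bradykinin for rat, Lys-Des-Arg9-bradykinin for human. Antagonism was expressed as % of maximum inhibition, with IC50 from varied concentrations.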

The target of assay [2] is T2, B1R receptor of the rat (CHO K1 cells stably transfected with the B1R gene of the rat) (Rattus norvegicus, UniProt P97583).
T2 construct: expressed in transfected cells; host or cells: CHO K1 cells (Chinese hamster ovary), stably transfected
T2 sequence (P97583 1-337): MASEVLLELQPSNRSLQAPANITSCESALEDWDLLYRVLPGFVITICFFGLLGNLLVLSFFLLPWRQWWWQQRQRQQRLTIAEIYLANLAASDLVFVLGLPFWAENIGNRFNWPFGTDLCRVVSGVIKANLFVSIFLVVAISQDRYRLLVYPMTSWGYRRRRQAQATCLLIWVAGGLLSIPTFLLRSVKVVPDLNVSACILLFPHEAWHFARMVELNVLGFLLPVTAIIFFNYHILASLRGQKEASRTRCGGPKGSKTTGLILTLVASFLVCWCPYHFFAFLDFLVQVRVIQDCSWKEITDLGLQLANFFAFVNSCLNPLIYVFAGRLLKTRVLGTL
The experiment in a line: Functional study on the bradykinin receptor 1 (B1R), Ca2+ fluorescence (Fluo-4) FLIPR/Novostar assay, rB1R cells. Format: cell-based. The conditions noted are these: CHO-K1, 10 μM. The method in brief: as §1

Where [3] appears, read: CHO-K1, read-out: % inhibition (human B1R) at 10 μM.
[4] abbreviates: read-out: % inhibition (rat B1R) at 10 μM.
Where [5] appears, read: CHO-K1, read-out: % Inhibition (h-B1R) at 10 μM.
Where [6] appears, read: read-out: % Inhibition (r-B1R) at 10 μM.

Where two headings read alike, the source gives them in different places.

Broadly, the inhibition is the relative decrease from the control value, in per cent.

As for `CN1CCN([C@@H]2CCC[C@H](N(C)C(=O)c3ccc4c(c3)[C@H](NS(=O)(=O)c3ccccc3Cl)CC4)C2)CC1` [Example H-104, (3R)-3-[[(2-Chlorophenyl)sulfonyl]amino]-N-methyl-N-[(1S,3R)-3-(4-methyl-piperazin-1-yl)-cyclohexyl]-2,3-dihydro-1H-indene-5-carboxylic acid amide], the inhibition at 10 µM is 75% in assay [1] (setting [3]) and 37% in assay [2] (setting [4]).

Take `CN(C(=O)c1ccc2c(c1)[C@H](NC(=O)[C@@H]1CCCc3ccccc31)CC2)C1CCN(c2ccncc2)CC1` [Example H-70, N-[(1R)-6-[Methyl-(1-pyridin-4-yl-piperidin-4-yl)-carbamoyl]-2,3-dihydro-1H-inden-1-yl]-1,2,3,4-tetrahydro-naphthalene-1-carboxylic acid amide]: the inhibition at 10 µM in assay [1] (setting [3]) was 100%; in assay [2] (setting [4]), 96%.

As for `CN(C(=O)c1ccc2c(c1)[C@H](NC(=O)[C@H]1CCCc3ccccc31)CC2)C1CCN(c2ccncc2)CC1` [Example H-69, (1S)-N-[(1R)-6-[Methyl-(1-pyridin-4-yl-piperidin-4-yl)-carbamoyl]-2,3-dihydro-1H-inden-1-yl]-1,2,3,4-tetrahydro-naphthalene-1-carboxylic acid amide], the values for the inhibition at 10 µM in assay [1] (setting [3]) and in assay [2] (setting [4]) were 100% and 99%, respectively.

As to `CN(C(=O)c1ccc2c(c1)[C@H](NC(=O)c1cncnc1)CC2)C1CCN(c2ccncc2)CC1` [Example H-31, N-[(1R)-6-[Methyl-(1-pyridin-4-yl-piperidin-4yl)carbamoyl]-2,3-dihydro-1H-inden-1-yl]-pyrimidine-5-carboxylic acid amide], the inhibition at 10 µM came to 100% in assay [1] (setting [3]) and 70% in assay [2] (setting [4]).

In the case of `CN(C(=O)c1cc2c(cc1F)[C@H](NC(=O)c1ccccc1Cl)CC2)C1CCN(c2ccncc2)CC1` [Example H-57, (1R)-1-[(2-Chloro-benzoyl)amino]-6-fluoro-N-methyl-N-(1-pyridin-4-yl-piperidin-4-yl)-2,3-dihydro-1H-indene-5-carboxylic acid amide], the inhibition at 10 µM in assay [1] (setting [3]) and in assay [2] (setting [4]) was 100% throughout.

With `CN(C(=O)c1ccc2c(c1)CC[C@H]2N1Cc2cccc(Cl)c2C1=O)C1CCN(CCc2ccncc2)CC1` [Example H-43, (1R)-1-(4-Chloro-3-oxo-1,2-dihydro-isoindol-2-yl)-N-methyl-N-[1-(2-pyridin-4-yl-ethyl)-piperidin-4-yl]-2,3-dihydro-1H-Indene-5-carboxylic acid amide], the inhibition at 10 µM in assay [1] (setting [3]) is 22%; in assay [2] (setting [4]), 51%.

Turning to `Cc1cc(N2CCC(N(C)C(=O)c3ccc4c(c3)[C@H](NC(=O)c3cccc(F)c3Cl)CC4)CC2)nc(C)n1` [Example H-129, (3R)-3-[(2-Chloro-3-fluoro-benzoyl)amino]-N-[1-(2,6-dimethyl-pyrimidin-4-yl)-piperidin-4-yl]-N-methyl-2,3-dihydro-1H-indene-5-carboxylic acid amide], the values for the inhibition at 10 µM in assay [1] (setting [3]) and in assay [2] (setting [4]) were 100% and 98%, respectively.

On to `CN(C(=O)c1ccc2c(c1)C(NC(=O)c1sccc1Cl)CC2(C)C)C1CCN(c2ccncc2)CC1` (stereo not shown) [CC_H-20, 3-Chloro-N-[3,3-dimethyl-6-[methyl-(1-pyridin-4-yl-piperidin-4-yl)-carbamoyl]-1,2-dihydro-inden-1-yl]-thiophene-2-carboxylic acid amide], for which the inhibition at 10 µM in assay [1] (setting [5]) came out at 99%; in assay [2] (setting [6]), 104%.

Regarding `CN(C)c1nccc(N2CCC(N(C)C(=O)c3ccc4c(c3)[C@H](NC(=O)c3ccccc3Cl)CC4)CC2)n1` [Example H-118, (3R)-3-[(2-Chloro-benzoyl)amino]-N-[1-(2-dimethylamino-pyrimidin-4-yl)-piperidin-4-yl]-N-methyl-2,3-dihydro-1H-indene-5-carboxylic acid amide], the results for the inhibition at 10 µM in assay [1] (setting [3]) and in assay [2] (setting [4]) were 100% and 104%, respectively.

As to `COc1c(C)cnc(CN2CCC(N(C)C(=O)c3ccc4c(c3)[C@H](NC(=O)c3ccccc3Cl)CC4)CC2)c1C` [Example H-131, (3R)-3-[(2-Chloro-benzoyl)amino]-N-[1-[(4-methoxy-3,5-dimethyl-pyridin-2-yl)-methyl]-piperidin-4-yl]-N-methyl-2,3-dihydro-1H-indene-5-carboxylic acid amide], the inhibition at 10 µM was determined as 55% in assay [1] (setting [3]) and 77% in assay [2] (setting [4]).

Regarding `CN(C(=O)c1ccc2c(c1)[C@H](NC(=O)c1ccccc1Cl)CC2)C1CCC(N2CCc3cnccc3C2)CC1` (stereo partly drawn) [Example H-99, (3R)-3-[(2-Chloro-benzoyl)amino]-N-methyl-N-[4-(1,2,3,4-tetrahydro-[2,6]naphthyridin-2-yl)-cyclohexyl]-2,3-dihydro-1H-indene-5-carboxylic acid amide], the inhibition at 10 µM in assay [1] (setting [3]) was found to be 81%; in assay [2] (setting [4]), 104%.

Turning to `CCN(C(=O)c1ccccc1C)[C@@H]1CCc2ccc(C(=O)N(C)C3CCN(c4cc(C)nc(C)n4)CC3)cc21` [Example H-170, (3R)-N-[1-(2,6-Dimethyl-pyrimidin-4-yl)-piperidin-4-yl]-3-[ethyl-(2-methyl-benzoyl)-amino]-N-methyl-2,3-dihydro-1H-indene-5-carboxylic acid amide], the inhibition at 10 µM in assay [1] (setting [3]) is 100%; in assay [2] (setting [4]), 106%.

On to `CN(C(=O)c1ccc2c(c1)[C@H](NS(=O)(=O)c1ccccc1Cl)CC2)C1CCN(c2ccncc2)CC1` [Example H-33, (3R)-3-[[(2-Chlorophenyl)sulfonyl]amino]-N-methyl-N-(1-pyridin-4-yl-piperidin-4-yl)-2,3-dihydro-1H-indene-5-carboxylic acid amide], for which the inhibition at 10 µM was 100% in assay [1] (setting [3]) and 101% in assay [2] (setting [4]).

`CN(C(=O)c1ccc2c(c1)[C@H](NC(=O)C1CCOc3ccccc31)CC2)C1CCN(c2ccncc2)CC1` (stereo partly drawn) [Example H-84, N-[(1R)-6-[Methyl-(1-pyridin-4-yl-piperidin-4-yl)-carbamoyl]-2,3-dihydro-1H-inden-1-yl]-3,4-dihydro-2H-chromene-4-carboxylic acid amide]: the inhibition at 10 µM was found to be 100% in assay [1] (setting [3]) and 103% in assay [2] (setting [4]).

Turning to `CN(C(=O)c1ccc2c(c1)C(N(C)C(=O)c1cnccc1C(F)(F)F)CC2)C1CCN(c2ccncc2)CC1` (stereo not shown) [CC_H-32, N-Methyl-N-[6-[methyl-(1-pyridin-4-yl-piperidin-4-yl)-carbamoyl]-2,3-dihydro-1H-inden-1-yl]-4-(trifluoromethyl)-pyridine-3-carboxylic acid amide], the inhibition at 10 µM amounted to 97% in assay [1] (setting [5]) and 105% in assay [2] (setting [6]).

Consider `CN(C(=O)c1ccc2c(c1)[C@H](NC(=O)C1(c3ccccc3F)CCCC1)CC2)C1CCN(c2ccncc2)CC1` [Example H-47, (3R)-3-[[1-(2-Fluorophenyl)-cyclopentanecarbonyl]amino]-N-methyl-N-(1-pyridin-4-yl-piperidin-4-yl)-2,3-dihydro-1H-indene-5-carboxylic acid amide], for which the inhibition at 10 µM turned out to be 100% in assay [1] (setting [3]) and 104% in assay [2] (setting [4]).

`CN(C(=O)c1ccc2c(c1)C(NC(=O)C1CCCCC1)CCO2)C1CCN(c2ccncc2)CC1` (stereo not shown) [CC_H-38, 4-(Cyclohexanecarbonylamino)-N-methyl-N-(1-pyridin-4-yl-piperidin-4-yl)-3,4-dihydro-2H-chromene-6-carboxylic acid amide]: the inhibition at 10 µM in assay [1] (setting [5]) is 99%; in assay [2] (setting [6]), 104%.

(Values after patent publication US8680159B2, “Bradykinin 1 receptor modulating compounds” (Gruenenthal GmbH, priority 2010, dated 2014).)
